Legend:
Myoglobin = assay: Serum myoglobin levels before and after 10 days of bed rest (clinical study, RBM Human DiscoveryMAP); assay type: in vivo
Procedure: Example 3 describes a clinical study that was conducted to evaluate the effects of 10 days of bed rest on healthy elderly subjects. The exemplary methods are based, at least in part, on inventors' discovery that serum myoglobin levels change by statistically significant amounts in 18 healthy elderly subjects undergoing 10 days of bed rest. The exemplary methods are also based, at least in part, on inventors' discovery that intervention with HMB altered the change in serum myoglobin levels.
(§1) The 24 healthy subjects initially involved in the study were randomized into two groups. Subjects in the treatment group received two β-hydroxy-β-methylbutyrate (HMB) sachets containing 1.5 grams of Ca-HMB (TSI, Salt Lake City, Utah), 4 grams of maltodextrin, and 200 milligrams of calcium with additional sweetener and flavoring agents. Subjects in the control group received two control sachets that were identical to the HMB sachets with the exclusion Ca-HMB. This study was a double-blinded study. Neither the investigators nor the subjects were informed of the identity of any of the study products during the clinical portion of the study. Subjects were instructed to consume a sachet twice daily by mixing a sachet into a non-caloric, non-caffeinated, non-carbonated, non-milk-based beverage of their choice. Treatment with HMB or Control was initiated 5 days prior to bed rest and was continued until the end of the 10 day bed rest period.
After a diet stabilization of 5 days (ambulatory period), subjects remained in bed continuously for 10 days. While confined to bed rest, subjects were allowed to use the bedside commode for urination or were taken in a wheelchair for toileting. Subjects were given the option of taking a sponge bath or showering in a wheelchair. Prophylactic measures were taken to detect and prevent deep vein thrombosis including a blood D-dimer test followed by an ultrasound examination if D-dimer test was positive, passive range of motion exercise during bed rest, the use of TED hose and SCD over the bed rest period. Subjects were offered medication to help mitigate reflux problems associated with being supine. Subjects were constantly monitored by nursing staff and received a daily physical examination by the study physician.
Fasted blood samples were collected from subjects on Day 1 of bed rest and at the end of bed rest for measurement of biomarkers, including myoglobin.
Rules Based Medicine (Myriad RBM, Inc., Austin, Tex.) data generated from the RBM Human DiscoveryMAP v1.0 consists of n=187 biomarkers measured in serum collected at two time points, pre-bed rest and post-bed rest from 18 elderly subjects. The distribution of each marker was evaluated. Each marker has a least detectable dose (LDD) value, defined as the mean+3 standard deviations (SD) of 20 blank samples. For any subject whose marker result was <LDD, the LDD value as provided by RBM was imputed. If the marker result was >LDD, the original result was used. Any marker in which >30% of all subject's results were imputed was excluded from further statistical analyses. Of the initial n=187 RBM markers, n=63 markers from the RBM dataset were excluded from further analyses, leaving n=124 markers for evaluation.
The Control group was examined to determine the biomarkers that changed over bed rest. Individual univariate dependent t-tests were performed on each of the 124 markers. There were a total of 8 participants who had matched data over bed rest within the Control group.
In order to assess the changes in the markers over bed rest that may be mediated by HMB intervention, individual univariate ANCOVA analyses were subsequently performed on each of the 13 (unadjusted) significant markers from the multiple dependent t-tests. Using a Bonferonni adjusted p-value of 0.0038 (0.05/13), 10 markers, including myoglobin, were significant.

[1] = Body composition (lean mass by DXA) over 10 days of bed rest (clinical study); assay type: in vivo, human; conditions: over 10 day bed rest, healthy elderly subjects
Text: as §1, with “Subjects were instructed to consume a sachet twice daily by mixing a sachet into a non-caloric, non-caffeinated, non-carbonated, non-milk-based beverage of their choice. Treatment with HMB or Control was initiated 5 days prior to bed rest and was continued until the end of the 10 day bed rest period.” left out
After a diet stabilization of 5 days (ambulatory period), subjects remained in bed continuously for 10 days. […] Subjects were constantly monitored by nursing staff and received a daily physical examination by the study physician.
Body weight was measured at baseline and after bed rest to the nearest 0.1 kilogram on an Ohaus scale (Ohaus Corporation, model 15S, Florham Park, N.J.). Nude body weight was calculated as total body weight minus hospital robe weight. Body height was measured to the nearest 0.1 cm without shoes using a stadiometer. Body mass index (BMI) was calculated as weight/height^2 (kg/m^2). […]

[2] = 10 subjects treated with HMB, after 10 days of bed rest
[3] = serum, pre- to post-bed rest (10 days), n = 10

## CC(C)(O)CC(=O)O [HMB, β-hydroxy-β-methylbutyrate]
Myoglobin; [2]
  average decrease in blood levels of myoglobin: 10.2 ng/mL
  decrease in blood levels of myoglobin (percent): 19%
Myoglobin; serum, healthy elderly subjects, n = 10, 1.5 g Ca-HMB sachet twice daily from 5 days prior to bed rest, Day 1 of bed rest
  Myoglobin Pre-bed rest Mean: 49.3 ng/mL
Myoglobin; serum, healthy elderly subjects, n = 10, 1.5 g Ca-HMB sachet twice daily, end of 10 day bed rest
  Myoglobin Post-bed rest Mean: 39.1 ng/mL
Myoglobin; [3]
  Myoglobin % Change: −19 ± 6%
  Myoglobin Change: -10.2 ± 6.4 ng/mL
[1]; p=0.42 paired t-test
  average loss of total lean mass: -0.17 ± 0.19 kg
[1]; p=0.65 paired t-test
  average loss of leg lean mass: -0.08 ± 0.17 kg
